Results on 7 compounds are retold here after patent US7495008B2, “Spiro-piperidine derivatives” (Hoffmann-La Roche Inc., priority 2006, dated 2009).

The target of this assay is T1, human V1a receptor (Homo sapiens, UniProt P37288).
T1 construct: expressed in transfected cells; host or cells: HEK293 cells, transiently transfected; membranes prepared
Kind of assay: V1a receptor binding study (3H-Vasopressin SPA, HEK293 membranes). To be noted: membranes of HEK293 cells transiently transfected with human V1a receptor, Ki by Cheng-Prussoff equation, read-out: pKi hV1a (converted). Here is the method: The human V1a receptor was cloned by RT-PCR from total human liver RNA. The coding sequence was subcloned in an expression vector after sequencing to confirm the identity of the amplified sequence. […] Cell membranes were prepared from HEK293 cells transiently transfected with the expression vector and grown in 20 liter fermenters with the following protocol.
50 g of cells were resuspended in 30 ml freshly prepared ice cold Lysis buffer (50 mM HEPES, 1 mM EDTA, 10 mM MgCl2 adjusted to pH=7.4+complete cocktail of protease inhibitor (Roche Diagnostics)); homogenized with Polytron for 1 min; and sonicated on ice for 2×2 minutes at 80% intensity (Vibracell sonicator). The preparation was centrifuged 20 min at 500 g at 4° C., the pellet was discarded and the supernatant centrifuged 1 hour at 43,000 g at 4° C. (19,000 rpm). The pellet was resuspended in 12.5 ml Lysis buffer+12.5 ml Sucrose 20% and homogenized using a Polytron for 1-2 min. The protein concentration was determined by the Bradford method and aliquots were stored at −80° C. until use. For binding studies 60 mg Yttrium silicate SPA beads (Amersham) were mixed with an aliquot of membrane in binding buffer (50 mM Tris, 120 mM NaCl, 5 mM KCl, 2 mM CaCl2, 10 mM MgCl2) for 15 minutes with mixing. 50 ul of bead/membrane mixture was then added to each well of a 96 well plate, followed by 50 ul of 4 nM 3H-Vasopressin (American Radiolabeled Chemicals). For total binding measurement 100 ul of binding buffer were added to the respective wells, for non-specific binding 100 ul of 8.4 mM cold vasopressin and for compound testing 100 ul of a serial dilution of each compound in 2% DMSO. The plate was incubated 1 h at room temperature, centrifuged 1 min at 1000 g and counted on a Packard Top-Count. Non-specific binding counts were subtracted from each well and data was normalized to the maximum specific binding set at 100%. To calculate an IC 50 the curve was fitted using a non-linear regression model (XLfit), and the Ki was calculated using the Cheng-Prussoff equation.

T1 sequence (P37288 whole entry): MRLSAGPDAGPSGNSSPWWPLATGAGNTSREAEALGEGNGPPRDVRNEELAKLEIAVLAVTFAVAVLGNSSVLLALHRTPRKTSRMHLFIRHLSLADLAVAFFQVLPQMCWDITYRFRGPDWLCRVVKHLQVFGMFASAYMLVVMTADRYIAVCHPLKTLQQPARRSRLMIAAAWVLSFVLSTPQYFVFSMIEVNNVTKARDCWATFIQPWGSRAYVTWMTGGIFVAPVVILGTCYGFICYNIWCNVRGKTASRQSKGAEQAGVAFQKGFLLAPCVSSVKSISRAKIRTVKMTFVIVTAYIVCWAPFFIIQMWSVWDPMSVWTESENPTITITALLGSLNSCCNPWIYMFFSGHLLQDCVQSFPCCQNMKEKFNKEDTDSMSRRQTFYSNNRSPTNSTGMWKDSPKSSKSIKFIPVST

Consider `O=C(c1cc2ccccc2s1)N1CCC2(CC1)OCc1ccccc12` [Example 1, 1′-(1-Benzothien-2-ylcarbonyl)-3H-spiro[2-benzofuran-1,4′-piperidine]], for which the Ki is 0.0251 µM. Under `CC1=C(C(=O)N2CC[C@@]3(OC(=O)c4ccccc43)[C@@H](C)C2)Cc2ccccc21` (racemic) [Example 10, (1RS,3′SR)-3′-Methyl-1′-[(3-methyl-1H-inden-2-yl)carbonyl]-3H-spiro[2-benzofuran-1,4′-piperidin]-3-one] stands 0.0631 µM.

As to `COc1ccc2c(c1)C1(CCN(C(=O)c3cc4cccnc4[nH]3)CC1)OC2=O` [Example 14, 6-Methoxy-1′-(1H-pyrrolo[2,3-b]pyridin-2-ylcarbonyl)-3H-spiro[2-benzofuran-1,4′-piperidin]-3-one], the Ki is 0.2 µM. In the case of `CCc1cc(Br)cc2cc(C(=O)N3CCC4(CC3)OCc3ccccc34)oc12` [Example 6, 1′-[(5-Bromo-7-ethyl-1-benzofuran-2-yl)carbonyl]-3H-spiro[2-benzofuran-1,4′-piperidine]] it was 0.0501 µM; in that of `COc1ccc2c(c1)CC(C(=O)N1CCC3(CC1)OCc1ccccc13)S2` (stereo not shown) [Example 4, 1′-[(5-Methoxy-2,3-dihydro-1-benzothien-2-yl)carbonyl]-3H-spiro[2-benzofuran-1,4′-piperidine]], 0.0631 µM. For `COc1cccc2cc(C(=O)N3CCC4(CC3)OCc3ccccc34)sc12` [Example 2, 1′-[(7-Methoxy-1-benzothien-2-yl)carbonyl]-3H-spiro[2-benzofuran-1,4′-piperidine]], the Ki is 0.0501 µM. For `O=C(c1nc2cc(Cl)ccc2[nH]1)N1CCC2(CC1)OCc1ccccc12` [Example 9, 1′-[(5-Chloro-1H-benzimidazol-2-yl)carbonyl]-3H-spiro[2-benzofuran-1,4′-piperidine]], the Ki was 0.0316 µM.
